The series deals with CYP2D6 (Homo sapiens, UniProt P10635). The series can be described thus: In vitro inhibition of human cytochrome P450 enzymes (fluorometric, 3-cyano-7-ethoxycoumarin substrate). The method, then:
In vitro Inhibition of Human Cytochrome P450 Enzymes
Solution A: NADPH-Regenerating System
To a glass tube on ice were added sequentially: 2% aqueous solution of sodium bicarbonate (10 mL) in NADP^+ (17 mg), glucose-6-phosphate (78 mg) and glucose-6-phosphate dehydrogenase (60 units).
To a glass tube on ice were added sequentially: 0.5 M KH2PO4 (pH 7.4, 2.4 mL), water (9 mL), CYP2D6 (480 μL of 1 picomol/microliter), and 3-cyano-7-ethoxycoumarin (5 mM in 2% acetonitrile-water, 120 microliter).
Solution A was transferred to a 96-well black plate (80 microliter per well), followed by various concentrations of a solution of N-methyl-1-[3,4-methylenedioxyphenyl]-2-aminopropane in 20% acetonitrile-water (20 microliter per well). The reaction was initiated by adding 100 microliter of solution B to each well of the 96-well plate. The plate was incubated for 30 minutes at 37° C. in the dark. The reaction was stopped by adding 75 microliter of stop buffer (4:1 acetonitrile-0.5 M Tris base) to each well, and the end point was measured in a fluorometer plate reader at λex=409 nm and λem=460 nm.

Like-named read-outs stand apart in the source and are kept apart here.

CYP2D6, sequence (P10635 whole entry): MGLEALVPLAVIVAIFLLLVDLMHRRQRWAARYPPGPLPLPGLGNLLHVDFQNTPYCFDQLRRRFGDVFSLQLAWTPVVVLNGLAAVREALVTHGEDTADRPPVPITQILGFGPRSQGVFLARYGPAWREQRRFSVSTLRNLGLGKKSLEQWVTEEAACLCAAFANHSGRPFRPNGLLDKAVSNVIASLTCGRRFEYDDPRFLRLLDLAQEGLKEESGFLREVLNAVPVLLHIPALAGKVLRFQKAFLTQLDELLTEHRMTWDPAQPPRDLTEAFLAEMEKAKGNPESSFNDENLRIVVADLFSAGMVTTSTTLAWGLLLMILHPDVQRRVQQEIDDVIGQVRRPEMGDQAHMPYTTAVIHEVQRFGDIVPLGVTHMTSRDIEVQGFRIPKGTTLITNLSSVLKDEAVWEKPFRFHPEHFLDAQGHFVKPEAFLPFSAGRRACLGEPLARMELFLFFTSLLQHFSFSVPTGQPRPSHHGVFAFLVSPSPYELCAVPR

In the case of `N[C@@H]1C[C@H]1c1ccccc1` (racemic) [Tranylcypromine, reference compound], under “read-out: IC50 (inhibition concentration of CYP2D6), CYP2D6, 3-cyano-7-ethoxycoumarin substrate, 30 minutes at 37° C., fluorescence λex=409 nm, λem=460 nm”, the IC50 amounted to 2.4 µM.
Molecule `[2H]C1([2H])Oc2ccc(CC(C)NC)cc2O1` (single isomer, unassigned) [example 5, d2-N-methyl-1-(3,4-methylenedioxyphenyl)-2-aminopropane] registered an IC50 of 8 µM.
With `[2H]C([2H])([2H])NC(C)Cc1ccc2c(c1)OC([2H])([2H])O2` (single isomer, unassigned) [example 6, d5-N-methyl-1-(3,4-methylenedioxyphenyl)-2-aminopropane], the IC50 amounted to 8 µM.
For the molecule `[2H]C(c1ccc2c(c1)OC([2H])([2H])O2)C([2H])(C)NC([2H])([2H])[2H]` (single isomer, unassigned) [example 9, d7-N-methyl-1-(3,4-methylenedioxyphenyl)-2-aminopropane], the IC50 amounted to 30 µM.
`CNC(C)Cc1ccc2c(c1)OCO2` (centres unmarked) [N-methyl-1-[3,4-methylenedioxyphenyl]-2-aminopropane, reference compound] registered an IC50 of 3 µM.
